Test results as given in patent publication US7824745B2, “Benzochromene derivatives” (Merck Patent GmbH, priority 2005, dated 2010).

Tests used:
[1] = Dielectric anisotropy Δ∈ of the compounds, dissolved in a liquid-crystalline host, capacitance at 1 kHz, extrapolated to 100%; assay type: physicochemical; details: extrapolated from 5% solution in ZLI-2857, 20° C.
Source text: In the present application, the term dielectrically positive compounds denotes compounds having a Δ∈ of >1.5, the term dielectrically neutral compounds denotes those in which −1.5≦Δ∈≦1.5, and the term dielectrically negative compounds denotes those having a Δ∈ of <−1.5. The […] of this mixture at 1 kHz in at least one test cell with a layer thickness of about 20 μm having a homeotropic surface alignment and at least one test cell with a layer thickness of about 20 μm having a homogeneous surface alignment. The measurement voltage is typically 0.5 V to 1.0 V, but is always less than the capacitive threshold of the respective liquid-crystal mixture. […]
(§1) All concentrations in this application, unless explicitly stated otherwise, are indicated in percent by weight and relate to the corresponding mixture as a whole. All physical properties are and have been determined in accordance with “Merck Liquid Crystals, Physical Properties of Liquid Crystals”, status November 1997, Merck KGaA, Germany, and apply to a temperature of 20° C., unless explicitly stated otherwise. An is determined at 589 nm and Δ∈ at 1 kHz.
(§2) The following examples are intended to explain the invention without limiting it. […] V10, V50 and V90 (the threshold voltage, mid-grey voltage and saturation voltage respectively) and V0 (the capacitive threshold voltage) were each determined at 20° C.

[2] = Optical anisotropy Δn (589 nm, 20° C.), host mixture ZLI-4792; assay type: physicochemical; details: 5% in ZLI-4792
Description: The host mixture used for determining the applicationally relevant physical parameters is ZLI-4792 from Merck KGaA, Germany. As an exception, the determination of the dielectric anisotropy of dielectrically negative compounds is carried out using ZLI-2857, likewise from Merck KGaA, Germany. The values for the respective compound to be investigated are obtained from the change in the properties, for example the dielectric constants, of the host mixture after addition of the compound to be investigated and extrapolation to 100% of the compound employed. […]
as §1
as §2, with “it. Above and below, percentages are percent by weight.” for “it.”

melting point: 108 °C | Δ∈ [1]: −7.5 | Δn [2]: 0.1302
Structure (SMILES): CCCC1CCc2c(c(=O)oc3cc(OCC)ccc23)C1 (stereo not drawn) [Example 1.1, 3-ethoxy-8-propyl-7,8,9,10-tetrahydrobenzo[c]chromen-6-one]
